Converted amounts (≈) assume the structure as drawn. Counter-ions that a name gives are not always drawn. Like-named read-outs stand apart in the source and are kept apart here.
Tests used:
Format in all cases: cell-based
[1] = tested on: S. aureus ATCC 49951 (NB01006); assay: MIC by broth microdilution, S. aureus NB01006; details: 35° C., 20 hours; for MIC: Staphylococcus aureus, ATCC49951, CAMHB, read-out: Antibacterial activity (MIC) NB01006
Procedure, shortened: (§1)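 CAMHB, ~5×10^5 CFU/mL, 2-fold serial dilutions (final DMSO 1%), 35° C, ambient air, 20 h. Read OD600 plus visual check; MIC = lowest conc. with no visible growth, μg/mL.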

[2] = tested on: S. aureus NB01006-AVR005, gyrA (S84L), grlA (580F) and grlB (E471K); assay: microbe, parasite or virus in culture; details: for MIC: Staphylococcus aureus, 20 h, read-out: Antibacterial activity (MIC) NB01006-AVR005
Procedure, shortened: as §1

[3] = tested on: S. aureus NB01080 fluoroquinolone-resistant clinical isolate; assay: MIC by broth microdilution, S. aureus NB01080; details: CAMHB, 35° C., 20 hours; for MIC: Staphylococcus aureus, read-out: Antibacterial activity (MIC) NB01080
Procedure, shortened: as §1

[4] = tested on: E. faecalis ATCC 29212 (NB04001); assay: MIC by broth microdilution, E. faecalis NB04001; details: 35° C., 20 hours; for MIC: Enterococcus faecalis, ATCC29212, CAMHB, read-out: Antibacterial activity (MIC) NB04001
Procedure, shortened: as §1

[5] = tested on: S. pneumoniae ATCC 25922 (NB07001); assay: MIC by broth microdilution, S. pneumoniae NB07001; details: for MIC: Streptococcus pneumoniae, read-out: Antibacterial activity (MIC) NB07001
Procedure, shortened: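 CLSI broth microdilution in CAMHB, inoculum ~5×10^5 CFU/mL, two-fold compound dilutions at 1% final DMSO. Plates incubated 20 h at 35°C in ambient air; MIC (μg/mL) is the lowest concentration preventing visible growth, confirmed by OD600.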

[6] = tested on: E. coli ATCC 25922 (NB27001); assay: MIC by broth microdilution, E. coli NB27001; details: 35° C., 20 hours; for MIC: Escherichia coli, ATCC25922, CAMHB, read-out: Antibacterial activity (MIC) NB27001
Procedure, shortened: as §1

[7] = tested on: P. aeruginosa NB52019, wild-type PAO1 strain; assay: MIC by broth microdilution, P. aeruginosa NB52019; details: CAMHB, 35° C., 20 hours; for MIC: Pseudomonas aeruginosa, read-out: Antibacterial activity (MIC) NB52019
Procedure, shortened: as §1

[8] = ATCC25922, S. pneumoniae, CAMHB supplemented with 5% lysed horse blood, 35° C., 20 hours

Compound | MIC [1] | MIC [2] | MIC [3] | MIC [4] | MIC ([5]; ATCC25922, 20 h) | MIC [6] | MIC [7] | Antibacterial activity (MIC) NB01006 ([1]; CAMHB) | Antibacterial activity (MIC) NB01006-AVR005 ([2]; ciprofloxacin-selected S. aureus mutant, CAMHB, 35° C., 20 hours) | Antibacterial activity (MIC) NB01080 [3] | Antibacterial activity (MIC) NB04001 ([4]; CAMHB) | Antibacterial activity (MIC) NB07001 ([5]; S. pneumoniae, CAMHB supplemented with 5% lysed horse blood, 35° C., 20 hours) | Antibacterial activity (MIC) NB27001 ([6]; CAMHB) | Antibacterial activity (MIC) NB52019 [7] | MIC [5, 8]
CNC[C@@H]1CCN(c2c(F)cc3cc(C(=O)O)c(=O)n4c3c2OC[C@@H]4C)C1 [Example 1.41, (S)-9-fluoro-3-methyl-10-((S)-3-((methylamino)methyl)pyrrolidin-1-yl)-5-oxo-2,3-dihydro-5H-[1,4]oxazino[2,3,4-ij]quinoline-6-carboxylic acid] | < 1 µg/mL | 1 to 32 µg/mL (≈ 2.66 to 85.2 µM) | 1 to 32 µg/mL (≈ 2.66 to 85.2 µM) | 1 to 32 µg/mL (≈ 2.66 to 85.2 µM) | < 1 µg/mL | 1 to 32 µg/mL (≈ 2.66 to 85.2 µM) | > 32 µg/mL | – | – | – | – | – | – | – | –
C[C@H]1COc2c(N3CCC(C4(N)CCC4)C3)c(F)cc3cc(C(=O)O)c(=O)n1c23 (single isomer, unassigned) [Example 1.46] | < 1 µg/mL | 1 to 32 µg/mL (≈ 2.49 to 79.7 µM) | < 1 µg/mL | < 1 µg/mL | < 1 µg/mL | 1 to 32 µg/mL (≈ 2.49 to 79.7 µM) | > 32 µg/mL | – | – | – | – | – | – | – | –
NC1([C@@H]2CCN(c3c(F)cc4cc(C(=O)O)c(=O)n5c4c3OCC5)C2)CC1 [Example 1.20, (R)-10-(3-(1-aminocyclopropyl)pyrrolidin-1-yl)-9-fluoro-5-oxo-2,3-dihydro-5H-[1,4]oxazino[2,3,4-ij]quinoline-6-carboxylic acid] | 1 to 32 µg/mL (≈ 2.68 to 85.7 µM) | > 32 µg/mL | 1 to 32 µg/mL (≈ 2.68 to 85.7 µM) | 1 to 32 µg/mL (≈ 2.68 to 85.7 µM) | 1 to 32 µg/mL (≈ 2.68 to 85.7 µM) | > 32 µg/mL | > 32 µg/mL | – | – | – | – | – | – | – | –
C[C@H]1COc2c(N3CCC(=C(Cl)CO)CC3)c(F)cc3cc(C(=O)O)c(=O)n1c23 [Example 1.8, (S)-10-(4-(1-chloro-2-hydroxyethylidene)piperidin-1-yl)-9-fluoro-3-methyl-5-oxo-2,3-dihydro-5H-[1,4]oxazino[2,3,4-ij]quinoline-6-carboxylic acid] | < 1 µg/mL | 1 to 32 µg/mL (≈ 2.36 to 75.7 µM) | < 1 µg/mL | < 1 µg/mL | < 1 µg/mL | > 32 µg/mL | > 32 µg/mL | – | – | – | – | – | – | – | –
C[C@H]1COc2c(N3CCC(C4(N)COC4)C3)c(F)cc3cc(C(=O)O)c(=O)n1c23 (stereo partly drawn) [Example 1.9, (3S)-10-(3-(3-aminooxetan-3-yl)pyrrolidin-1-yl)-9-fluoro-3-methyl-5-oxo-2,3-dihydro-5H-[1,4]oxazino[2,3,4-ij]quinoline-6-carboxylic acid] | 1 to 32 µg/mL (≈ 2.48 to 79.3 µM) | > 32 µg/mL | > 32 µg/mL | > 32 µg/mL | 1 to 32 µg/mL (≈ 2.48 to 79.3 µM) | > 32 µg/mL | > 32 µg/mL | – | – | – | – | – | – | – | –
C[C@H]1COc2c(N3CCC(F)(CN)C3)ccc3cc(C(=O)O)c(=O)n1c23 (stereo partly drawn) [Example 12.5, (3S)-10-(3-(aminomethyl)-3-fluoropyrrolidin-1-yl)-3-methyl-5-oxo-2,3-dihydro-5H-[1,4]oxazino[2,3,4-ij]quinoline-6-carboxylic acid] | 1 to 32 µg/mL (≈ 2.77 to 88.6 µM) | > 32 µg/mL | 1 to 32 µg/mL (≈ 2.77 to 88.6 µM) | 1 to 32 µg/mL (≈ 2.77 to 88.6 µM) | 1 to 32 µg/mL (≈ 2.77 to 88.6 µM) | 1 to 32 µg/mL (≈ 2.77 to 88.6 µM) | > 32 µg/mL | – | – | – | – | – | – | – | –
C[C@H]1COc2c(N3CC[C@@H](C4(N)CC4)C3)c(F)c(Cl)c3cc(C(=O)O)c(=O)n1c23 [Example 19.1, (S)-10-((R)-3-(1-aminocyclopropyl)pyrrolidin-1-yl)-8-chloro-9-fluoro-3-methyl-5-oxo-2,3-dihydro-5H-[1,4]oxazino[2,3,4-ij]quinoline-6-carboxylic acid formate salt] | < 1 µg/mL | < 1 µg/mL | < 1 µg/mL | < 1 µg/mL | < 1 µg/mL | 1 to 32 µg/mL | > 32 µg/mL | – | – | – | – | – | – | – | –
C[C@H]1COc2c(N3CCC4NCCCC4C3)c(F)cc3cc(C(=O)O)c(=O)n1c23 (mixture of isomers) [Example 1.65, (3S)-9-fluoro-3-methyl-10-(octahydro-1,6-naphthyridin-6(2H)-yl)-5-oxo-2,3-dihydro-5H-[1,4]oxazino[2,3,4-ij]quinoline-6-carboxylic acid] | 1 to 32 µg/mL | > 32 µg/mL | > 32 µg/mL | > 32 µg/mL | 1 to 32 µg/mL | 1 to 32 µg/mL | > 32 µg/mL | – | – | – | – | – | – | – | –
C[C@H](N)[C@@H]1CCN(c2c(F)c(F)c3cc(C(=O)O)c(=O)n4c3c2OC[C@@H]4C)C1 [Example 13.2, (S)-10-((R)-3-((S)-1-aminoethyl)pyrrolidin-1-yl)-8,9-difluoro-3-methyl-5-oxo-2,3-dihydro-5H-[1,4]oxazino[2,3,4-ij]quinoline-6-carboxylic acid] | < 1 µg/mL | < 1 µg/mL | < 1 µg/mL | < 1 µg/mL | < 1 µg/mL | < 1 µg/mL | 1 to 32 µg/mL (≈ 2.54 to 81.3 µM) | – | – | – | – | – | – | – | –
(S)-9-fluoro-3-methyl-10-((R)-3-(1-((2,2,2-trifluoroacetyl)-14-azanyl)cyclopropyl)pyrrolidin-1-yl)-2,3-dihydro-5H-[1,4]oxazino[2,3,4-ij]quinolin-5-one trifluoroacetate salt [Example 6.1] | – | – | – | – | – | – | – | A (1 > A) | A (1 > A) | A (1 > A) | A (1 > A) | A (1 > A) | B (32 > B ≥ 1) | C (C ≥ 32) | –
C[C@H]1COc2c(N3CCN4C5CCC(C5)C4C3)c(F)cc3cc(C(=O)O)c(=O)n1c23 (stereo partly drawn) [Example 1.63, (3S)-9-fluoro-3-methyl-10-(octahydro-2H-6,9-methanopyrido[1,2-a]pyrazin-2-yl)-5-oxo-2,3-dihydro-5H-[1,4]oxazino[2,3,4-ij]quinoline-6-carboxylic acid] | > 32 µg/mL | > 32 µg/mL | > 32 µg/mL | > 32 µg/mL | – | 1 to 32 µg/mL (≈ 2.42 to 77.4 µM) | > 32 µg/mL | – | – | – | – | – | – | – | > 32 µg/mL
C[C@H]1COc2c(N3Cc4cncnc4C3)c(F)cc3cc(C(=O)O)c(=O)n1c23 [Example 1.31, (S)-10-(5,7-dihydro-6H-pyrrolo[3,4-d]pyrimidin-6-yl)-9-fluoro-3-methyl-5-oxo-2,3-dihydro-5H-[1,4]oxazino[2,3,4-ij]quinoline-6-carboxylic acid] | < 1 µg/mL | > 32 µg/mL | 1 to 32 µg/mL (≈ 2.62 to 83.7 µM) | 1 to 32 µg/mL (≈ 2.62 to 83.7 µM) | < 1 µg/mL | 1 to 32 µg/mL (≈ 2.62 to 83.7 µM) | > 32 µg/mL | – | – | – | – | – | – | – | –
C[C@H]1COc2c(N3CC[C@H](N)C3)c(F)cc3cc(C(=O)O)c(=O)n1c23 [Example 1.2, (S)-10-((S)-3-aminopyrrolidin-1-yl)-9-fluoro-3-methyl-5-oxo-2,3-dihydro-5H-[1,4]oxazino[2,3,4-ij]quinoline-6-carboxylic acid] | 1 to 32 µg/mL (≈ 2.88 to 92.1 µM) | > 32 µg/mL | > 32 µg/mL | 1 to 32 µg/mL (≈ 2.88 to 92.1 µM) | 1 to 32 µg/mL (≈ 2.88 to 92.1 µM) | 1 to 32 µg/mL (≈ 2.88 to 92.1 µM) | 1 to 32 µg/mL (≈ 2.88 to 92.1 µM) | – | – | – | – | – | – | – | –
C[C@H]1COc2c(N3CC[C@@H](C4(N)CC4)C3)c(F)cc3cc(C(=O)O)c(=O)n1c23.Cl [Example 1.1, (S)-10-((R)-3-(1-aminocyclopropyl)pyrrolidin-1-yl)-9-fluoro-3-methyl-5-oxo-2,3-dihydro-5H-[1,4]oxazino[2,3,4-ij]quinoline-6-carboxylic acid hydrochloride salt] | < 1 µg/mL | 1 to 32 µg/mL | < 1 µg/mL | < 1 µg/mL | – | 1 to 32 µg/mL | > 32 µg/mL | – | – | – | – | – | – | – | < 1 µg/mL
C[C@H]1COc2c(N3CCC4(CC3)CNC4)c(F)cc3cc(C(=O)O)c(=O)n1c23 [Example 1.17, (S)-9-fluoro-3-methyl-5-oxo-10-(2,7-diazaspiro[3,5]nonan-7-yl)-2,3-dihydro-5H-[1,4]oxazino[2,3,4-ij]quinoline-6-carboxylic acid] | > 32 µg/mL | > 32 µg/mL | > 32 µg/mL | > 32 µg/mL | > 32 µg/mL | > 32 µg/mL | > 32 µg/mL | – | – | – | – | – | – | – | –
C[C@H]1COc2c(N3CC4CNC4C3)c(F)cc3cc(C(=O)O)c(=O)n1c23 (single isomer, unassigned) [Example 1.39] | > 32 µg/mL | > 32 µg/mL | > 32 µg/mL | > 32 µg/mL | > 32 µg/mL | > 32 µg/mL | > 32 µg/mL | – | – | – | – | – | – | – | –
C[C@H]1CCOc2c(N3CC[C@@H](C4(N)CC4)C3)c(F)cc3cc(C(=O)O)c(=O)n1c23 [Example 1.24, (S)-11-((R)-3-(1-aminocyclopropyl)pyrrolidin-1-yl)-10-fluoro-4-methyl-6-oxo-3,4-dihydro-2H,6H-[1,4]oxazepino[2,3,4-ij]quinoline-7-carboxylic acid] | < 1 µg/mL | 1 to 32 µg/mL (≈ 2.49 to 79.7 µM) | 1 to 32 µg/mL (≈ 2.49 to 79.7 µM) | < 1 µg/mL | < 1 µg/mL | 1 to 32 µg/mL (≈ 2.49 to 79.7 µM) | > 32 µg/mL | – | – | – | – | – | – | – | –
C[C@H]1COc2c(N3CCC(C(C)(C)N)C3)c(F)cc3cc(C(=O)O)c(=O)n1c23 (single isomer, unassigned) [Example 1.43] | < 1 µg/mL | 1 to 32 µg/mL (≈ 2.57 to 82.2 µM) | 1 to 32 µg/mL (≈ 2.57 to 82.2 µM) | < 1 µg/mL | < 1 µg/mL | 1 to 32 µg/mL (≈ 2.57 to 82.2 µM) | > 32 µg/mL | – | – | – | – | – | – | – | –
